Assay results as given in patent publication US20240150301A1, “METHODS OF MODULATING ANDROGEN RECEPTOR CONDENSATES” (ETERN BIOPHARMA (SHANGHAI) CO., LTD., priority 2021, published 2024).
pIC50: −log10 of the molar value.

Tests used:
[1] = target: T1, AR-mEGFP nuclear puncta in LNCaP cells (Homo sapiens, UniProt P10275); assay: AR phase separation inhibition IC50 testing (nuclear puncta imaging); type: cell-based; details: for pIC50: LNCaP, compound 3 h before 20 nM DHT, 3 h DHT
T1 construct: expressed in transfected cells; host or cells: LNCaP
T1 sequence (P10275 1-920): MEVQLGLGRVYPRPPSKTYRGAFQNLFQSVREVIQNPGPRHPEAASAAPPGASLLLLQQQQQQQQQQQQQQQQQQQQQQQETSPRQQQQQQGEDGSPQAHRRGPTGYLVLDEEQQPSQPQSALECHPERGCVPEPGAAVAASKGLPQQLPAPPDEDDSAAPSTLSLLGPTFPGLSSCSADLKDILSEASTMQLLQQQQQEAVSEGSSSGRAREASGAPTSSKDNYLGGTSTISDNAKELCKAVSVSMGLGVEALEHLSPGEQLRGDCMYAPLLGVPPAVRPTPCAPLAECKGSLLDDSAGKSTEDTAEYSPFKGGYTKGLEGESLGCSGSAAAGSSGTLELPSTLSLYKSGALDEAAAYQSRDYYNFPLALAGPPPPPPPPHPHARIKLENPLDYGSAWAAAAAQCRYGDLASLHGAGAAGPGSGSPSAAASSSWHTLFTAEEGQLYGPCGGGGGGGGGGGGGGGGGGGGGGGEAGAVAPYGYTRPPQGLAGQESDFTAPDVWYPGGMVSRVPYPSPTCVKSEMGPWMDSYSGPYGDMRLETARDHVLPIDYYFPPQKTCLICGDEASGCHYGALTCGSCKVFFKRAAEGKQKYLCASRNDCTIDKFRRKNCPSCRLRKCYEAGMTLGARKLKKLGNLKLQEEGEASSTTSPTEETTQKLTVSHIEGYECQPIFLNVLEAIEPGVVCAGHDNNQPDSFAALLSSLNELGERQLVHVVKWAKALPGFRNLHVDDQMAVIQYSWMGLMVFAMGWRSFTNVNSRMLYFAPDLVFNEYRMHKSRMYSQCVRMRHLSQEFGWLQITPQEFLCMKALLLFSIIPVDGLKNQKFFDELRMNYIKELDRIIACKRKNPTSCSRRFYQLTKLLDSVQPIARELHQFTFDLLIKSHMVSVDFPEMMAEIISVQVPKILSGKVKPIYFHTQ
Description: Nuclear Puncta Imaging for Compounds IC50 Determination • LNCaP cells were cultured in a 10-cm dish. Cells were transfected with AR (AR or AR F877L/T878A)-mEGFP expression plasmids (pMSCV vector, 12 μg plasmid per 10-cm dish). 12 hours after transfection, medium were replaced with steroid hormone-free and phenol red-free RPMI1640 (starvation medium) and continued to starve for another 24 hours. Cells (80 μl, 20,000 per well) were seeded in a 96-well glass bottom plate (Cellvis, P96-1.5H-N) and cultured for another 24 hours. Then cells were incubated with 10× serial-diluted compounds […] for 3 hours before 20 nM DHT stimulation […]. After 3 hours DHT addition, cells were fixed with equal volume pre-warmed 8% PFA for 30 minutes and subsequently replaced with 100 μl PBS. Nuclear puncta images were acquired with Operetta CLS (Perkin Elmer) equipped with 60× water immersion lens (40 fields per well). The images were analyzed with Operetta built-in analysis modules. Nuclei were found from illumination corrected images with find nuclei module (type M) and filtered out low intensity nuclei. Subsequently puncta were first identified using find spot module (type A) and classified to high confident puncta and low confident puncta with PhenoLOGIC machine learning plug-in. For better representation, only high confident puncta were kept. The analyzed image puncta data were exported and statistics were processed with R/Bioconductor. The specific IC50 values were calculated by R/drc package (four-parameter log-logistic function).

AR V7 = target: T2, AR V7 (Homo sapiens, UniProt P10275); assay: ARE-luciferase reporter assay in HEK293T cells cotransfected with AR-V7; type: cell-based; parameters: host or cells: HEK293T; details: HEK293T cotransfected with AR-V7, hormone-starved, 24 h; read-out: HEK293T(V7) ARE-luc IC50
T2 sequence (P10275 1-644 isoform P10275-3): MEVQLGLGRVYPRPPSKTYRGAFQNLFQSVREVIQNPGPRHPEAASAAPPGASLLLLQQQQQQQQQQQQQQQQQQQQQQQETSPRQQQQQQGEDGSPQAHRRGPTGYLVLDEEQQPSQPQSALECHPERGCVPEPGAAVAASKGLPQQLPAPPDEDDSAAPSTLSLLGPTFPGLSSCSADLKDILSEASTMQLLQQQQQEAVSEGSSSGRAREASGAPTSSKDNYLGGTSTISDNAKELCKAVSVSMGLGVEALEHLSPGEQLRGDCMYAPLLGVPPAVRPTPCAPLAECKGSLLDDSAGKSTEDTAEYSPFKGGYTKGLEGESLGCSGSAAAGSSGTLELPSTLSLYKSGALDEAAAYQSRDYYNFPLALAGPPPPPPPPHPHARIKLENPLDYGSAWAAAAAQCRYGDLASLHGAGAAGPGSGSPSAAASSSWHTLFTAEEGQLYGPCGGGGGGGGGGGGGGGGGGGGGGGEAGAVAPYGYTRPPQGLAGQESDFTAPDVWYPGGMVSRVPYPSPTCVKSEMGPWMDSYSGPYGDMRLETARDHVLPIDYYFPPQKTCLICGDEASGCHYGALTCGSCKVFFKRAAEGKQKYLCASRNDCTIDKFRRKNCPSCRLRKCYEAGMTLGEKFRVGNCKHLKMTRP
Description: The ARE-luciferase reporter plasmid contains functional AREs (androgen response elements) to which AR binds in response to androgen to induce luciferase activity. LNCaP (Cobioer) cells were transiently transfected with the ARE-luciferase reporter in charcoal stripped FBS/phenol red-free RPMI medium prior to treatment for 24 hours. Then DMSO or test compounds with serial diluted concentrations were added one hour prior to the addition of DHT(1 nM). After 24 h of incubation with DHT, cells were lysed and luciferase activity was assayed using the ONE-Glo™ Luciferase Assay System (Promega) and measured using EnVision Multimode Plate Reader, according to manufacturer's instructions. Values were normalized to cell viability determined by CellTiter-Glo® Luminescent Cell Viability Assay Kit (Promega). […] GraphPad Prism graphing software was used to calculate IC50 values.
To evaluate the transcriptional activity of AR-V7, HEK293T(Cobioer) cells were transiently cotransfected with an expression vector for AR-V7 and the ARE-luciferase reporter in hormone-starved conditions. For 22Rv1(Cobioer) prostate cancer cell line, which expresses endogenous AR-V7, ARE-luciferase reporter was transiently transfected in hormone-starved conditions. 24 h after transfection, DMSO or test compounds with serial diluted concentrations were added for additional 24 h incubation. Reporter activity was detected and normalized by cell viability as described above. Treatments were normalized to DMSO control activity, and IC50 values were further determined via GraphPad Prism graphing software.

Row | AR phase separation (FIG. 7) [1] | pIC50 [1] | pIC50 (AR V7) | SMILES
1 | inhibited AR phase separation | 5.44 | 5.68 | CC(C)(c1ccc(OCc2ccnc(N=S3(=O)CCNCC3)n2)cc1)c1cc(Cl)c(OCCCl)c(C#N)c1 [Compound 6, 3-chloro-2-(2-chloroethoxy)-5-(2-(4-((2-((1-oxido-1λ^6-thiomorpholin-1-ylidene)amino)pyrimidin-4-yl)methoxy)phenyl)propan-2-yl)benzonitrile]
2 | inhibited AR phase separation | 5.60 | 5.05 | CC(C)(c1ccc(C#Cc2cnc(NS(C)(=O)=O)nc2)cc1)c1cc(Cl)c(OCCCl)c(C#N)c1 [Compound 60, N-(5-((4-(2-(3-chloro-4-(2-chloroethoxy)-5-cyanophenyl)propan-2-yl)phenyl)ethynyl)pyrimidin-2-yl)methanesulfonamide]
3 | did not show inhibition | < 4.70 | < 4.70 | CC(C)(c1ccc(OCc2ccnc(NS(C)(=O)=O)n2)cc1)c1cc(Cl)c(OCCCl)c(C#N)c1 [Compound AA, N-(4-((4-(2-(3-chloro-4-(2-chloroethoxy)-5-cyanophenyl)propan-2-yl)phenoxy)methyl)pyrimidin-2-yl) methane sulfonamide, reference compound]
